# Assay results taken from article PMC3836906 (Cancer chemotherapy and pharmacology, 2013).
# Where “and” joins values, the source holds several entries; their conditions need not be identical. Identical values can stand only once. Like-named read-outs stand apart in the source and are kept apart here.
# Legend:
# [1] = in vivo
# in vivo [2] = conditions: CD2F1, mouse, iv, 20 mg/kg
# [3] = system: A498 human renal cell cancer xenografts; conditions: in vivo; cited from earlier work
# renal carcinoma cells = conditions: cited from earlier work
# [4] = system: human RXF-393 renal carcinoma cell xenografts; conditions: mouse, in vivo; cited from earlier work
# [5] = system: human ACHN renal cell tumors; conditions: mouse, in vivo; cited from earlier work
# mice [6] = conditions: mouse, in vivo
# cell cycle = conditions: cited from earlier work
# [7] = system: human 786-0 renal cell tumors; conditions: mouse, in vivo; cited from earlier work
# in vivo [8] = conditions: CD2F1, mouse, iv, 20 mg/kg; remark: listed apart in the source
# [9] = mouse, in vivo
# mice [10] = conditions: mouse, in vivo; remark: listed apart in the source
# ALDH1B1 = conditions: cited from earlier work
# liver ALDH = conditions: mouse, in vivo, ip, 300 mg/kg; cited from earlier work
# RBC ALDH = conditions: mouse, in vivo, ip, 300 mg/kg; cited from earlier work
structure (smiles),measurement,setting,value
"Cc1cc(N(CCOS(C)(=O)=O)CCOS(C)(=O)=O)ccc1C=O [BEN, 4-[bis[2-[(methylsulfonyl)-oxy]ethyl]amino]-2-methyl-benzaldehyde]",Increase of BEN plasma exposure by disulfiram pretreatment,"[1]; CD2F1, mouse",368 fold
same,Time after administration at which analyte became undetectable in plasma,"[1]; CD2F1, mouse",15 min
same,Cl/F,"[1]; CD2F1, mouse, iv, 20 mg/kg",0.18 mL/min/kg
same,Tmax,"[1]; CD2F1, mouse, iv, 20 mg/kg",5 min
same,Vd/F,"[1]; CD2F1, mouse, iv, 20 mg/kg",120 L/kg
same,Tmax,in vivo [2]; in vivo,5 min
same,Effect on xenograft growth,[3],slowed the growth
same,Activity in NCI 60 cell line screen,renal carcinoma cells,specific activity
same,Cure rate,[4],> 70%
same,Anti-tumor activity,[5],significant activity
same,Day after dosing by which blood values returned to normal,mice [6],≤ 14 days
same,Effect of disulfiram pretreatment on percentage lymphocytes nadir,mice [6],appeared to deepen
same,"Hematocrits, white blood cells and percent lymphocytes following treatment",mice [6],decreased
same,Cell cycle effect,cell cycle,S and G2/M cell cycle arrest
same,Anti-tumor activity,[7],significant activity
same,CL renal,in vivo [8],0.4 mL/min
same,Body weight loss,[9],approximately 12%
"Cc1cc(N(CCO)CCO)ccc1C(=O)O [BA-(OH)2, 4-[bis[2-hydroxy-ethyl]amino]-2-methyl-benzoic acid]",Cl/F,[1]; mouse,1.90 mL/min/kg and 1.20 mL/min/kg
same,Tmax,[1]; mouse,10 min
same,Vd/F,[1]; mouse,83 L/kg and 60 L/kg
same,Tmax,in vivo [2]; plasma,10 min
same,half-life,"in vivo [2]; plasma, Half-life, BEN 20 mg/kg iv alone",29 min
"CCN(CC)C(=S)SSC(=S)N(CC)CC [disulfiram, Tetraethylthiuram disulfide]",Hepatic pathology,mice [10],mild hepatic lesions
same,Sensitivity of ALDH1B1 to inhibition,ALDH1B1,insensitive to inhibition
same,Reduction of ALDH activity in liver compared to controls,liver ALDH,27%
same,Body weight loss,[9],approximately 12%
same,Reduction of ALDH activity in RBC compared to controls,RBC ALDH,81%
"CS(=O)(=O)OCCCCOS(C)(=O)=O [busulfan, reference compound]",Anti-tumor activity,[4],no activity
